Each structure is given as a SMILES string.

In data set [1] the test system is spontaneous dilated cardiomyopathy (J2N-k) hamster model. The data set can be described thus: Spontaneous dilated cardiomyopathy (J2N-k) hamster model, 8-week administration from 20 weeks of age (Tests 1-3): echocardiography, body weight. In outline: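 Male J2N-k δ-glycan-deficient hamsters (delivered at 18 weeks; 2-week acclimation) were dosed by oral gavage twice daily for 8 weeks in 0.5% CMC-Na (G in distilled water; 5 mL/kg) at human-equivalent doses, e.g. cilostazol 1.7 mg/kg. Camostat PLGA preparation was given 10 mg/kg s.c. every 4 weeks. Echocardiographic EF/FS changes from baseline were assessed at 4 and 8 weeks versus vehicle.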

Data set [2] deals with lauric acid-induced rat hind limb circulatory disorder model. The note with it: oral, 7 consecutive days; cited from earlier work.
Data set [3] concerns rat coronary artery complete ischemia model. The experiment in a line: Model of ischemia (MI) by rat coronary artery complete ligation (Tests 1 and 2): echocardiography, body weight. The note with it: for value of change in E.F. compared with E.F. on Day 1 / value of change in F.S. compared with F.S. on Day 1: B-MS 100, C-MS 50, F-MS 30 mg/kg s.c. single injection.
The subject of data set [4] is rats. The note with it: cited from earlier work.
In data set [5] the test system is rats. The data set can be described thus: Repeated oral administration toxicity study in rats (dose-setting basis). The note with it: mg/kg twice per day, oral preparation.
Description: The dose-setting basis for the doses of the test substances used in pharmacological tests is as described below.
In data set [6] the test system is mice with ethionine-induced pancreatitis. The note with it: oral, twice daily; cited from earlier work.
The subject of data set [7] is rats. The note with it: rat, in vivo, sc; cited from earlier work.
Data set [8] relates to spontaneous dilated cardiomyopathy (J2N-k) hamster model. The experiment in a line: Long-term (36 weeks) administration in J2N-k hamster model: cardiac function, survival rate. The format is in vivo. The note with it: 3.0 mg/kg. As to the method:
ONO-1301 and (K) candesartan, which is ARB, were each individually orally administered to a δ-glycan-deficient spontaneous dilated cardiomyopathy (J2N-k) hamster model twice daily repeatedly for 36 weeks, after the onset of pathological condition (20 weeks old); and changes in cardiac function and survival rates in long-term administration were compared for evaluation. Specifically, echocardiographic measurement was performed after the onset of pathological condition (20 weeks old); the animals were grouped evenly based on the ejection fractions (EF values) and the body weights (Table 15), and each test substance was individually administered for 36 weeks.
The test was performed in the same manner as described in the section “1. Investigation of effects in spontaneous dilated cardiomyopathy (J2N-k) hamster model” above.
ONO-1301 was administered at 3 mg/kg twice per day. Candesartan was administered at 3 mg/kg once per day, and only vehicle was administered at the second administration. To the control group, vehicle (0.5% CMC-Na) was administered twice daily.

In a further data set the test system is dogs. The note with it: 6-month toxicity study in dogs; cited from earlier work.
Data set [9] concerns spontaneously hypertensive rats (SHR). The note with it: oral 0.1, 1 and 10 mg/kg for 2 weeks; cited from earlier work.
[10] abbreviates: Test 2, p.o. b.i.d., NOAEL-based dose.
Where [11] appears, read: MI Test 1, NOAEL doses, 7 Day, mean ± S.D.
Setting [12] is: MI Test 1, NOAEL doses, 14 Day, mean ± S.D.
Where [13] appears, read: MI Test 1, NOAEL doses, 29 Day, mean ± S.D.
[14] abbreviates: MI Test 2, 14 Day, B 150, G 5, I 30, C 10 mg/kg p.o. b.i.d., mean ± S.D.
Where [15] appears, read: MI Test 2, 29 Day, B 150, G 5, I 30, C 10 mg/kg p.o. b.i.d., mean ± S.D.

As to `CC#CCC(C)[C@H](O)/C=C/[C@@H]1[C@H]2c3cccc(CCCC(=O)O)c3O[C@H]2C[C@H]1O` (mixture of isomers) [Compound F, Beraprost sodium], the “Body weight 0 W” value in [1] (Test 2, at grouping) amounted to 119.9 g. Also, in [1] (Test 2, p.o. b.i.d.), the “LVIDd 4 W” value amounted to 7.1 mm, the “LVIDd 8 W” value was determined as 7.5 mm, the “LVIDs 4 W” value is listed as 5.9 mm and the “LVIDs 8 W” value worked out at 6.3 mm. In addition, in [1] (setting [10]), the “% FS 4 W” value is “significantly higher”, the “% FS value of change at 4 W compared with 0 W” value was “significantly higher”, the “Body weight 1 W” value is given as 120.8 g and the “Body weight 2 W” value is reported as 122.7 g. Also, in data set [1] (setting [10]), the “Body weight 3 W” value was found to be 124.9 g, the “Body weight 4 W” value is listed as 127.1 g, the “Body weight 5 W” value was 128.2 g and the “Body weight 6 W” value came out at 129.6 g. Further, in data set [1] (setting [10]), the “Body weight 7 W” value is given as 129.9 g, the “Body weight 8 W” value is given as 130.0 g and the “EF 4 W” value is “significantly higher”. Moreover, the “Dose significantly ameliorating the disorder of the hind limbs” value in [2] is 300 µg/kg/day. Further, the “Action on left ventricular systolic function” value in [3] (MI Test 1, 28-day repeated oral administration b.i.d., NOAEL-based doses) was “suppression action on the deterioration of left ventricular systolic function”. The “Body weight” value in data set [3] (MI Test 1, NOAEL doses, 1 Day (grouping), mean ± S.D.) is recorded as 230.4 ± 3.3 g. In data set [3] (setting [11]), the % FS: value of change compared with the value on Day 1 is 0%, the “Body weight” value was 232.3 ± 10.0 g and the EF: value of change compared with the value on Day 1 was 0%. In data set [3] (setting [12]), the % FS: value of change compared with the value on Day 1 is -2%, the “Body weight” value was 252.6 ± 9.8 g and the EF: value of change compared with the value on Day 1 is -3%. Besides, the “Body weight” value in data set [3] (MI Test 1, NOAEL doses, 21 Day, mean ± S.D.) came out at 272.9 ± 7.7 g. In data set [3] (setting [13]), the % FS: value of change compared with the value on Day 1 is -3%, the “Body weight (g)” value is 295.4 ± 8.6 (7) g and the EF: value of change compared with the value on Day 1 is -6%. Also, the “Body weight change compared with control group” value in [3] (MI Test 1, until Day 29) is listed as “Significant body weight gain suppression”. For the same compound, the No-observed-effect level with rats [4] (rats, 12 months) is on record as 0.01 mg/kg/day. Further, the “Dose at which toxic findings were observed” value in the data set on rats [4] (repeated administration in rats, duration per compound) is listed as ≥ 0.1 mg/kg/day.

Consider `CN(C)C(=O)COC(=O)Cc1ccc(OC(=O)c2ccc(NC(=N)N)cc2)cc1` [Compound B, Camostat mesilate], for which, in [1] (Test 1, p.o. b.i.d.), the “LVIDd 4 W” value is recorded as 6.8 mm, the “LVIDd 8 W” value is on record as 7.3 mm, the “LVIDs 4 W” value is listed as 5.6 mm and the “LVIDs 8 W” value is 6.1 mm. Also, the “LVIDs 8 W” value in data set [1] (Test 1, p.o. b.i.d., listed as camostat) is recorded as “significantly lower”. In data set [1] (hamster, in vivo, po), the “Body weight 1 W” value came out at 114.4 g, the “Body weight 2 W” value came out at 117.7 g, the “Body weight 3 W” value was found to be 119.0 g and the “Body weight 4 W” value came to 121.3 g. In data set [1] (hamster, in vivo, po), the “Body weight 5 W” value is on record as 121.9 g and the “Body weight 6 W” value amounted to 122.2 g. Further, the “Minimal effective dose (screening 2)” value in data set [1] (mg/kg twice per day, oral preparation) amounted to 5 mg/kg. The “Maximum no-observed-adverse-effect level (screening 1)” value in the data set with rats [5] is listed as 150 mg/kg. In addition, the “EF actual measured value and/or amount of change compared with control” value in data set [3] (MI Test 2, Day 14 and Day 29) is on record as “significantly higher”. For the same compound, in data set [3] (MI Test 2, oral b.i.d. 4 weeks or single subcutaneous administration), the “Values of cardiac function (EF, FS %) compared with control” value is “significantly higher”. Besides, the “Body weight” value in [3] (MI Test 2, 1 Day, B 150, G 5, I 30, C 10 mg/kg p.o. b.i.d., B MS 100, C MS 50, I MS 30 mg/kg s.c. single injection, mean) is listed as 243.5 g. Besides, in data set [3] (MI Test 2, 7 Day, B 150, G 5, I 30, C 10 mg/kg p.o. b.i.d., B MS 100, C MS 50, I MS 30 mg/kg s.c. single injection, mean), the “Body weight” value is given as 249.1 g. For the same compound, in data set [3] (MI Test 2, 14 Day, B 150, G 5, I 30, C 10 mg/kg p.o. b.i.d., B MS 100, C MS 50, I MS 30 mg/kg s.c. single injection, mean), the “Body weight” value came out at 262.4 g. In addition, in [3] (setting [14]), the “value of change in E.F. compared with E.F. on Day 1” value is on record as <−4.2 ± 2.5> % and the “value of change in F.S. compared with F.S. on Day 1” value is listed as <−2.3 ± 5.3> %. Besides, in data set [3] (MI Test 2, 21 Day, B 150, G 5, I 30, C 10 mg/kg p.o. b.i.d., B MS 100, C MS 50, I MS 30 mg/kg s.c. single injection, mean), the “Body weight” value is reported as 273.9 g. In addition, the “Body weight” value in [3] (MI Test 2, 29 Day, B 150, G 5, I 30, C 10 mg/kg p.o. b.i.d., B MS 100, C MS 50, I MS 30 mg/kg s.c. single injection, mean) is 293.5 g. In [3] (setting [15]), the “value of change in E.F. compared with E.F. on Day 1” value is <−7.3 ± 4.2> % and the “value of change in F.S. compared with F.S. on Day 1” value was <−3.9 ± 2.2> %. Also, the “Dose suppressing increase in protease activity in the pancreas” value in data set [6] is 300 mg/kg. In addition, in the data set on rats [7], the 50% lethal dose (LD50) is reported as 1329 mg/kg.

Regarding `CCOc1nc2cccc(C(=O)OC(C)OC(=O)OC3CCCCC3)c2n1Cc1ccc(-c2ccccc2-c2nn[nH]n2)cc1` (centres unmarked) [candesartan, Candesartan cilexetil], in data set [8], the “EF compared with control group” value was “no longer significant in Week 30 and Week 36”; the “FS% compared with control group” value is “no longer significant in Week 36”; the Survival rate result is reported as “rapid decrease in the survival rate was observed from 29 weeks”. Moreover, the No-observed-adverse-effect level in the data set on rats [4] (rats, 6 months) is 10 mg/kg. The No-observed-adverse-effect level in the data set with dogs is 20 mg/kg. In [9], the Blood pressure result is recorded as “reduced blood pressure” and the Plasma renin concentration entry is on record as “increased the plasma renin concentration in a dose-dependent manner”.

Broadly, the LD50 is the dose at which mortality reaches 50%.
